Tests used:
[1] = Surface laser light scattering (SLLS); for viscosity: Liquid
[2] = wn = mass fraction of the nth substance listed; details: Surface laser light scattering (SLLS); for viscosity: Liquid

CCCCCCCCCCCC [dodecane]
[1]
Details | surface tension liquid-gas [mN/m] | viscosity [mPa·s]
323.15 K | 21.64 | 0.9225
348.15 K | 19.91 | 0.6763
373.15 K | 18.19 | 0.507
398.15 K | 16.22 | 0.4003
423.15 K | 14.33 | 0.3223
448.15 K | 12.38 | 0.2595
473.15 K | 10.67 | 0.2156
498.15 K | 8.95 | 0.1821
523.15 K | 7.25 | 0.1532
548.15 K | 5.64 | 0.1277
573.15 K | 4.14 | 0.1051

CCCCCCCCCCCCCCCCCCCCCCCCCCCC [octacosane]
[1]
Details | surface tension liquid-gas [mN/m] | viscosity [mPa·s]
398.15 K | 21.33 | 1.814
423.15 K | 19.53 | 1.361
448.15 K | 17.78 | 1.025
473.15 K | 16.57 | 0.8318
498.15 K | 15.38 | 0.6847
523.15 K | 14.18 | 0.5675
548.15 K | 12.86 | 0.4753
573.15 K | 11.51 | 0.3995

CCCCCCCCCCCCCCCCCCCCCCCCCCCC [octacosane] + CCCCCCCCCCCC
[2]
Details | surface tension liquid-gas [mN/m] | viscosity [mPa·s]
373.15 K, w2 = 0.156 | 21.71 | 1.944
398.15 K, w2 = 0.156 | 19.8 | 1.412
423.15 K, w2 = 0.156 | 18.5 | 1.089
448.15 K, w2 = 0.155 | 17.07 | 0.8604
473.15 K, w2 = 0.155 | 15.59 | 0.6912
498.15 K, w2 = 0.154 | 14.15 | 0.5671
523.15 K, w2 = 0.152 | 12.84 | 0.4787
548.15 K, w2 = 0.15 | 11.56 | 0.4075
573.15 K, w2 = 0.148 | 10.3 | 0.3445
